This note sets out measurements from patent US20130160151A1, “TRANSGENIC ANIMAL AS A MODEL FOR IDENTIFYING ADULT STEM CELLS, AND USES THEREOF” (Universite Pierre et Marie Curie (PARIS 6), priority 2010, published 2013).

Entries after “also recorded” stand apart in the source; their conditions may differ.

One assay has as its system β-gal positive cells. The experiment in a line: In vitro culture of FAC-sorted blue (β-gal positive) cells with or without EGF. The class given is cell-based. The following applies: medium containing EGF vs without EGF; FAC-sorted blue cells of the transgenic mouse. How it is done:
FIGS. 6A and 6B show in vitro culture of β-gal positive cells after FAC sorting in absence (6A) or in presence (6B) of EGF.
The inventors isolated cells from a transgenic mouse as obtained in Example 1, and isolated them by FAC sorting. Only the blue cells were cultured in vitro.
Then for proof of concept, the cells were contacted with human recombinant EGF or without EGF. The growth factor was tested for its ability to keep the cells blue over time.

The test system of the next assay is skin stem cells. The experiment in a line: Screening feasibility: number of blue clones per well of skin stem cells treated with factors. The class given is cell-based, mouse. As to conditions: skin stem cells from 7 week-old Pw1nlacZ mice, 2 cells/μl, factors added after 3 days in culture, a week treatment, duplicates. How it is done:
FIG. 9 is a graph showing the number of clones of skin stem cells after a week treatment with various factors (EGF, BMP2, BMP4, Activin A).
Fluorescence-activated cell sorting has been performed, dorsal skin from 7 week-old Pw1^nlacZ mice (n=3-5) were collected and cell preparation was obtained. For detection of nuclear β-galactosidase activity, a fluorescein di-β-D-galactopyranoside (FDG) staining kit (Invitrogen) was used according to manufacturer's instructions. Cells were then plated on 24 or 96 wells at density of 2 cells/μl. The cells were treated with 4 different factors after 3 days in culture: • EGF, Human recombinant protein from R&D system • BMP2, Human recombinant protein from Humanzyme • BMP4, Human recombinant protein from Humanzyme • Activin A, Human recombinant protein from Humanzyme
The analysis of the effect of different factors has been done using a simple readout: counting the number of blue clones per well. […] This experiment has been done in duplicates.

For the substance “EGF: Human recombinant protein from R&D system”, in the assay on β-gal positive cells, the “number of blue cells per clone” value is “greater; also recorded: higher” and the “number of blue clones” value is “greater; also recorded: higher”. In the assay on skin stem cells, the “number of blue clones per well (cell growth)” value was “allows the cells to grow”.
